“And” between values parts separate entries of the source, which are not always exact repeats. Equal entries are not always repeated. “Also recorded” adds a separate entry of the source.
Experiments:
Meerschweinchenherzen = test: Working guinea pig heart, ischaemia/reperfusion with activated PMN and platelets (Versuchsgruppe 1); design: species or system Meerschweinchen; conditions: for Herzleistung [% der initialen Leistung] / Interstitielles Volumen / Koronarfluß [% des Basalflusses]: flavone derivative 3*10^-5 M, individual hearts; for protektive Wirkung: ischaemic heart, Versuchsgruppe 1
Description: Pathogene Wirkung von gleichzeitig aktivierten PMN und Thrombozyten im ischämischen Herzen. Als Studienobjekt dienten arbeitende, also Volumen gegen bestimmte Drucke auswerfende Meerschweinchenherzen. […] Thrombin, FMLP ([…]-Formyl-[…]) und […] Interaktion der Blutzellen mit dem koronaren Endothel bei diesen Versuchen. Tabelle 3: ^i Als Blutzellpräparate wurden eingesetzt: a) hochreine PMN (1-2*10^5/ml), […] Vorinkubation mit 100 μM […]) bzw. […] von PMN und TASS (bzw. T) in jeweils analogen Konzentrationen. Tabelle 3 gibt die unter […] bei […] von PMN und Thrombozyten (TASS = […] Vorinkubation mit 100μM […] = nicht […].

[1] = system: venolären Endothelzellen (VEC); test: Time-lapse video microscopy of venular endothelial cell layers, opening/sealing of intercellular gaps (Versuchsgruppe 3); format: cell-based; conditions: for Abdichtung der Interzellularspalten: in presence of activated PMN and Thrombozyten (Abb. 3), 50 µM each
Description: In vitro kultivierte Schichten aus venolären Endothelzellen (VEC) werden unter Einsatz von Zeitraffervideomikrokinematographie (siehe Abb. 5) mit speziell entwickelter Methodik direkt beobachtet. Die durch aktivierte Thrombozyten (Anwendung von 1 U/ml Thrombin) und aktivierte PMN (Anwendung von 1 µM FMLP) induzierte Öffnung von Endothelbarrieren (= Öffnung der Interzellularspalten der Endothelzellen) kann so im Zeitablauf dokumentiert werden. Als Beispiel dient eine Serie von Aufnahmen, die den direkten Angriff der Blutzellen dokumentiert (Abb. 3) bzw. eine analoge Serie, die mit dem Überstand der aktivierten Blutzellen durchgeführt wurde (Abb. 4).
Die durch die Blutzellen zunächst geweiteten Interzellularspalten werden durch die Wirkstoffe wieder abgedichtet.
Abbildung 5 zeigt den experimentellen Aufbau für die videomikroskopische Beobachtung zellulärer Interaktionen an Endotheloberflächen: A-Gewebekulturmikroskop, B-Spezialinkubator mit Steuereinheit C, D-Gaszylinder mit 5% CO2, E-Waschflasche, F-Videokamera, G-Kamera-Kontroll-Einheit, H-Videorecorder, I-Monitor, J-Fotoapparat.

venoläre Endothelzellen = test: Hydraulic conductivity (LP) across confluent venular endothelial cell layers on porous filters (Versuchsgruppe 2 / Beispiel 12); format: cell-based, Meerschweinchen
Description: Als Studienobjekt dienten bis zur Konfluenz etablierte Schichten venolärer Endothelzellen auf porösen Filtern, die in einer speziell entwickelten Apparatur zur Trennung zweier Flüssigkeitskompartimente eingesetzt wurden. So konnte z. B. der druckabhängige Wassertransport (hydraulische Konduktivität = LP mit der Dimension 10^-5 cm / s / cm H2O) über die gezüchteten Endothelschichten unter dem Einfluß von Blutzellen unter entzündlichen Bedingungen studiert werden.
Details der Versuchsanordnung gehen aus den Abb. 1 und 2 hervor. Abbildung 1 zeigt ein wiederverwendbares, autoklavierbares Filterspannsystem bestehend aus (1) dem Formteil aus Polycarbonat, (2) dem Polycarbonatfilter, (3) dem stählernen Spannring und (4) dem Haltering aus Polycarbonat. Die Darstellung rechts neben dem Stapel der Einzelteile zeigt einen Querschnitt und eine Aufsicht des zusammengefügten Systems. Abbildung 2 zeigt eine Versuchsapparatur zur Messung hydraulischer Konduktivitäten von konfluenten Zellschichten, (1) Basisteil mit Magnetrührer (1a), (2) basales Flüssigkeitskompartiment mit Stopfen (2a) bzw. Zugang für Eppendorfpipetten (2b), (3) Steigrohr, (4) oberes Flüssigkeitskompartiment, zwischen den Flüssigkeitskompartimenten (2) und (4) liegt der ausgespannte Filter, (5), (6), (7) peristaltische Pumpen, (8) Vorratsgefäß für die Konstanthaltung des hydrostatischen Niveaus im oberen Flüssigkeitskompartiment, (9) Sammelgefäß für filtriertes Volumen.
Der Nachweis der Wirkung von Verbindungen als Hemmstoffe der Kontraktilität von venolären Endothelzellen erfolgt analog zur in Versuchsgruppe 2 charakterisierten Vorgehensweise unter Verwendung der dort beschriebenen Versuchsanordnung (vgl. Abb. 1 und 2) und wird hier am Beispiel des Apigenins (chemische Formel siehe Tabelle 1) dargestellt.
Venoläre Endothelzellen werden unter Verwendung einer speziellen, nachstehend beschriebenen Technik isoliert und auf porösen Polycarbonatfiltern (Porendurchmesser 0,4 µm, Fa. Nucleopore, Pleasanton, USA) unter Verwendung ebenfalls nachstehend beschriebener Zellkulturtechniken bis zur Konfluenz kultiviert. Diese endothelbeschichteten Filter werden in einer speziellen Apparatur (siehe Abb. 1 und 2) zur Trennung zweier Flüssigkeitskompartimente eingesetzt. Als Meßgröße für die Kontraktilität der venolären Endothelzellen dient der druckabhängige Wassertransport (hydraulische Konduktivität = LP mit der Dimension 10^-5 cm / s / cm H2O) über die gezüchteten Endothelschichten, der bei Kontraktion der Endothelzellen durch Übergang von der pflastersteinartigen zur sphärischen Form (vgl. Versuchsgruppe 3 mit Abb. 3 und 4) und die damit einhergehende Öffnung von Interzellularspalten zunimmt
Eine Lösung von Plasmasalzen (=physiologische Salzlösung, Zusammensetzung siehe unten) mit Zusatz von 0,1% Albumin und von aus peripherem Blut wie nachfolgend beschrieben isolierten Granulozyten (=PMN, Konzentration 10^5/ml) und Thrombozyten (10^6/ml) wird mit 1 µM FMLP und 1 U/ml Thrombin versetzt. Durch Zentrifugieren (10 min bei 1000 g) wird der Überstand gewonnen und in das obere Flüssigkeitskompartiment der Versuchsapparatur eingebracht. Dadurch erhöht sich - als Ausdruck der Kontraktion der venoiären Endothelzellen - die hydraulische Konduktivität gegenüber dem Ausgangswert (Nr. 1 in Tabelle 4) um ca. 1600 % (Nr. 10 in Tabelle 4).
Zur Dissoziation des Myokardgewebes werden zunächst mit Krebs-Henseleitlösung (KHL) nach Langendorff bei 120 mmHg 10 min perfundierte Meerschweinchenherzen 35 min lang mit einem in KHL angesetzten Proteasegemisch perfundiert (42 mg Kollagenase D + 60 mg Dispase II + 5 mg Trypsin + 58 mg Serumalbumin aus Rinderblut, gelöst in 42 ml Ca^2+-freier KHL; 1 ml/min; Kollagenase und Dispase: Boehringer, Mannheim, Trypsin: 1:250, Serva, Heidelberg). […]

ischämische Herzschäden = conditions: oral, initial 100 mg, then 20-40 mg/d; 17187 Patienten; cited from earlier work
[2] = PMN+T (platelets not preincubated with Acetylsalicylsäure)
[3] = PMN+TASS (platelets preincubated 1 h with 100 µM Acetylsalicylsäure, washed)
[4] = acute application of the flavonoid alone
[5] = flavonoid applied in combination with Acetylsalicylsäure
[6] = FMLP-activated PMN alone (Nr. 4-6), 50 µM
[7] = IPA + PMN (10^5/ml) + Thrombin (1 U/ml) + 1 µM FMLP, substance 50 µM, control without substance 5,40, baseline 1,80
[8] = IPA + supernatant of thrombin-activated Thrombozyten (10^6/ml) and FMLP-activated PMN (10^5/ml), substance 50 µM, control without substance 31,2, baseline 1,80

| SMILES | Herzleistung [% der initialen Leistung] (Meerschweinchenherzen; [2]) | Interstitielles Volumen (Meerschweinchenherzen; [2]) | Koronarfluß [% des Basalflusses] (Meerschweinchenherzen; [2]) | Herzleistung [% der initialen Leistung] (Meerschweinchenherzen; [3]) | Interstitielles Volumen (Meerschweinchenherzen; [3]) | Koronarfluß [% des Basalflusses] (Meerschweinchenherzen; [3]) | Verschlechterung der postischämischen Funktionsdaten (ΔP/Δt; interstitielles Volumen; Koronarfluß) (Meerschweinchenherzen; [4]) | Verschlechterung der postischämischen Funktionsdaten (ΔP/Δt; interstitielles Volumen; Koronarfluß) (Meerschweinchenherzen; [5]) | Abdichtung der Interzellularspalten [1] | Abdichtung der Spalten / Reparatur der Endothelschicht ([1]; supernatant of activated PMN and Thrombozyten, blood cells absent (Abb. 4), without Acetylsalicylsäure) | protektive Wirkung (Meerschweinchenherzen) | Effect on increase of LP (venoläre Endothelzellen; [6]) | LP [10^-5 cm/s/cm H2O] (venoläre Endothelzellen; [7]) | LP [10^-5 cm/s/cm H2O] (venoläre Endothelzellen; IPA + PMN (10^5/ml) + Thrombozyten (10^6/ml) + Thrombin (1 U/ml) + 1 µM FMLP, each substance 50 µM, control without substance 33,7, baseline 1,80) | LP [10^-5 cm/s/cm H2O] (venoläre Endothelzellen; [8]) | Effect on increase of LP (venoläre Endothelzellen; simultaneously activated Thrombozyten and PMN (Nr. 7-9), 50 µM each) | Kontraktion der venolären Endothelzellen (hydraulische Konduktivität) (venoläre Endothelzellen; supernatant of activated PMN and Thrombozyten (Nr. 10, 11), 50 µM) | Verschlechterung der postischämischen Funktionsdaten (ΔP/Δt; interstitielles Volumen; Koronarfluß) (Meerschweinchenherzen; platelets preincubated with 100 µM Acetylsalicylsäure, no flavonoid) | ischämische Herzschäden (ischämische Herzschäden) |
| --- | --- | --- | --- | --- | --- | --- | --- | --- | --- | --- | --- | --- | --- | --- | --- | --- | --- | --- | --- |
| O=C1C[C@@H](c2ccc(O)cc2)Oc2cc(O)cc(O)c21 [Naringenin] | 63 % der initialen Leistung and 49 % der initialen Leistung and 54 % der initialen Leistung and 69 % der initialen Leistung and 68 % der initialen Leistung | 169 µL/g and 175 µL/g and 189 µL/g and 205 µL/g and 198 µL/g | 57 % des Basalflusses and 55 % des Basalflusses and 63 % des Basalflusses and 51 % des Basalflusses and 45 % des Basalflusses and 46 % des Basalflusses | 90 % der initialen Leistung and 97 % der initialen Leistung and 84 % der initialen Leistung and 94 % der initialen Leistung and 82 % der initialen Leistung and 89 % der initialen Leistung | 98 µL/g and 117 µL/g and 107 µL/g and 109 µL/g and 102 µL/g | 107 % des Basalflusses and 98 % des Basalflusses and 93 % des Basalflusses and 92 % des Basalflusses and 89 % des Basalflusses and 101 % des Basalflusses | abgeschwächt | vollständig aufgehoben | – | – | – | – | – | – | – | – | – | – | – |
| C[C@@H]1O[C@@H](OC[C@H]2O[C@@H](Oc3c(-c4ccc(OCCO)c(OCCO)c4)oc4cc(OCCO)cc(O)c4c3=O)[C@H](O)[C@@H](O)[C@@H]2O)[C@H](O)[C@H](O)[C@H]1O [Trihydroxyethylrutosid] | – | – | – | – | – | – | – | – | nicht zur Abdichtung der Interzellularspalten | fast vollständige Reparatur der Endothelschicht; also recorded: Endothel-reparativen Effekt | – | – | – | – | – | – | – | – | – |
| O=c1cc(-c2ccccc2)oc2ccccc12 [Flavon, reference compound] | 31 % der initialen Leistung (2×) and 18 % der initialen Leistung and 35 % der initialen Leistung and 29 % der initialen Leistung | 344 µL/g and 389 µL/g and 388 µL/g and 358 µL/g and 346 µL/g | 33 % des Basalflusses and 19 % des Basalflusses and 31 % des Basalflusses and 28 % des Basalflusses and 29 % des Basalflusses | 78 % der initialen Leistung and 81 % der initialen Leistung and 69 % der initialen Leistung and 82 % der initialen Leistung and 83 % der initialen Leistung | 129 µL/g and 153 µL/g and 145 µL/g and 148 µL/g and 169 µL/g | 88 % des Basalflusses and 77 % des Basalflusses and 73 % des Basalflusses and 81 % des Basalflusses and 87 % des Basalflusses | – | – | – | – | keine protektive Wirkung | – | – | – | – | – | – | – | – |
| O=C1CCOc2ccccc21 [4-Chromanon, reference compound] | 27 % der initialen Leistung and 29 % der initialen Leistung and 38 % der initialen Leistung and 31 % der initialen Leistung and 17 % der initialen Leistung and 22 % der initialen Leistung | 373 µL/g and 348 µL/g and 354 µL/g and 318 µL/g and 356 µL/g | 44 % des Basalflusses and 19 % des Basalflusses and 35 % des Basalflusses and 26 % des Basalflusses and 29 % des Basalflusses | 79 % der initialen Leistung and 81 % der initialen Leistung and 74 % der initialen Leistung and 71 % der initialen Leistung and 69 % der initialen Leistung and 78 % der initialen Leistung | 155 µL/g and 148 µL/g and 168 µL/g and 161 µL/g and 165 µL/g | 88 % des Basalflusses and 74 % des Basalflusses and 79 % des Basalflusses (2×) and 81 % des Basalflusses and 82 % des Basalflusses | – | – | – | – | keine protektive Wirkung | – | – | – | – | – | – | – | – |
| O=c1cc(-c2ccc(O)cc2)oc2cc(O)cc(O)c12 [Apigenin] | 52 % der initialen Leistung and 67 % der initialen Leistung and 74 % der initialen Leistung and 73 % der initialen Leistung and 64 % der initialen Leistung and 71 % der initialen Leistung | 142 µL/g and 201 µL/g and 177 µL/g and 166 µL/g and 130 µL/g | 56 % des Basalflusses (2×) and 49 % des Basalflusses and 53 % des Basalflusses and 59 % des Basalflusses and 65 % des Basalflusses | 94 % der initialen Leistung and 96 % der initialen Leistung and 89 % der initialen Leistung and 88 % der initialen Leistung and 97 % der initialen Leistung | 95 µL/g and 120 µL/g and 105 µL/g and 102 µL/g and 97 µL/g and 91 µL/g | 102 % des Basalflusses and 107 % des Basalflusses and 98 % des Basalflusses and 95 % des Basalflusses and 91 % des Basalflusses and 109 % des Basalflusses | abgeschwächt | vollständig aufgehoben | – | – | – | keine Erhöhung von LP | 1,75 ± 0,06 10^-5 cm/s/cm H2O | 25,5 ± 4,1 10^-5 cm/s/cm H2O | 1,90 ± 0,07 10^-5 cm/s/cm H2O | hemmt diesen Effekt nur schwach | fast vollständig gehemmt | – | – |
| CC(=O)Oc1ccccc1C(=O)O [Acetylsalicylsäure, reference compound] | – | – | – | – | – | – | – | – | nicht zur Abdichtung der Interzellularspalten | – | – | keinen Effekt | 5,78 ±0,68 10^-5 cm/s/cm H2O | – | 28,2 ± 1,7 10^-5 cm/s/cm H2O | – | – | lediglich teilweisen Abschwächung | signifikant |

Source: patent EP1100539B1, “COMBINATION OF ACTIVE SUBSTANCES, ESPECIALLY FOR THE PROPHYLAXIS AND THERAPY OF ISCHAEMIC ORGANIC LESIONS AND REPERFUSION SYNDROMES” (Vascular Biotech GmbH, priority 1998, dated 2000)
